Values quoted from earlier work in paper PMC5351328 (Clinical and Translational Science, 2016).

Columns and labels:
[1] = cited from earlier work
[2] = tested on: CYP2C8; conditions: cited from earlier work

## CCCCOCCOc1ccc(-c2ccc3c(c2)/C=C(/C(=O)Nc2ccc([S@@+]([O-])Cc4cncn4CCC)cc2)CCCN3CC(C)C)cc1 [cenicriviroc]
[1]; healthy participants
  time to reach steady-state plasma concentrations: 8 to 10 days
[1]; in humans
  plasma half-life: 30 to 40 h
[1]; in vivo
  effect of administration with food on bioavailability: increase
[2]
  substrate of CYP2C8: substrate
